US10611751B2, “Dopamine D1 receptor positive allosteric modulators” (Eli Lilly and Company, priority 2018, dated 2020)

Target: human D1 receptor (Homo sapiens (Human), UniProt P21728)
Test: Human D1 Receptor PAM Assay (cAMP HTRF, potentiator mode with EC20 dopamine)
Assay type: cell-based
Details: for EC50: HEK293 cells expressing human D1 receptor, 12 nM dopamine (EC20), cAMP, read-out: Abs EC50; for Emax: fitted top of curve, 0% = EC20 dopamine, 100% = 5 μM dopamine, read-out: % Top (% Potentiation)
Description: The PAM activity of the compounds of the present invention may be measured essentially as described in Svensson et al., An Allosteric Potentiator of the Dopamine D1 Receptor Increases Locomotor Activity in Human D1 Knock-in Mices without Casusing Stereotypy or Tachyphylaxis. J. Pharmacol. Exp. Ther. (2017) 360:117-128.
More specifically, HEK293 cells that stably express the human D1 receptor (Accession number NM_000794) are generated by gene transduction using the pBABE-bleo retroviral vector and selected with Zeocin™ (InvivoGen). At approximately 80% confluency, the cells are harvested using TrypLE™ Express (Gibco), suspended in FBS plus 8% DMSO, and stored in liquid nitrogen. On the day of the assay, cells are thawed and resuspended in STIM buffer (Hanks Balanced Salt Solution supplemented with 0.1% BSA, 20 mM HEPES, 500 μM IBMX, and 100 μM ascorbic acid).
Test compound is serially diluted (1:2) with DMSO into assay plates (ProxiPlate-384 Plus, PerkinElmer) using acoustic dispensing (Labcyte) to provide 20 concentrations for full response curves. […] Plates are incubated at room temperature for a total reaction time of 60 min.
cAMP production is quantified using HTRF® detection (Cisbio) according to the manufacturer's instructions. Generally, lysis buffer containing anti-cAMP cryptate (5 μL) and D2-conjugate (from HTRF® kit) (5 μL) is added to the wells, plates are incubated for an additional 60-90 min, and the time-resolved fluorescence is detected using an EnVision™ plate reader (PerkinElmer). Fluorescence data is converted to cAMP concentrations using a cAMP standard curve and analyzing using a 4-parameter non-linear logistic equation (Genedata Screener, version 13.0.5-standard). For potentiator mode concentration-response curves, results are expressed as percent of the window between a response at EC20 concentration of dopamine alone (normalized to 0%) and the maximum response to dopamine (defined by response to 5 μM dopamine, final concentration, normalized as 100%).
Absolute EC50 values are calculated based on the maximum and minimum responses of the control agonist (dopamine). The % Potentiation (% Top) is determined from the fitted top of the concentration response curve.

Chain of human D1 receptor (P21728 whole entry): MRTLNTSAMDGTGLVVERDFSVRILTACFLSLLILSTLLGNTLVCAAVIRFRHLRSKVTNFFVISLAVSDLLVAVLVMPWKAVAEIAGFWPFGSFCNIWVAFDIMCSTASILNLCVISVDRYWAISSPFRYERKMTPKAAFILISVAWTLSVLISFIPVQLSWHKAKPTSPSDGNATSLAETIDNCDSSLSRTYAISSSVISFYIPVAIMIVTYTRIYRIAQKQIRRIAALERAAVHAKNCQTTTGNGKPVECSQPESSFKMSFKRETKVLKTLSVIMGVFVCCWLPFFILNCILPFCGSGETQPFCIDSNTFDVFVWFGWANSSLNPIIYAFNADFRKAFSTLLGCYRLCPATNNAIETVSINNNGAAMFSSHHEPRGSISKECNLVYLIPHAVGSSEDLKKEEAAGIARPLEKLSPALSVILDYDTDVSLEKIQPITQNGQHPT

Row | SMILES | EC50 | Emax
1 | CCn1cc(-c2cccc3c2C[C@H](CO)N(C(=O)Cc2c(Cl)cccc2Cl)[C@H]3C)cn1 [Example 2, 2-(2,6-dichlorophenyl)-1-((1S,3R)-5-(1-ethyl-1H-pyrazol-4-yl)-3-(hydroxymethyl)-1-methyl-3,4-dihydroisoquinolin-2(1H)-yl)ethan-1-one] | 172 nM | 91.2%
2 | C[C@H]1c2cccc(-c3cnn(C4CC4)c3)c2C[C@H](CO)N1C(=O)Cc1c(Cl)cccc1Cl [Example 3, 1-((1S,3R)-5-(1-cyclopropyl-1H-pyrazol-4-yl)-3-(hydroxymethyl)-1-methyl-3,4-dihydroisoquinolin-2(1H)-yl)-2-(2,6-dichlorophenyl)ethan-1-one] | 287 nM | 88.1%
3 | C[C@H]1c2cccc(-c3cnn(CCO)c3)c2C[C@H](CO)N1C(=O)Cc1ccccc1Cl [Example 5, 1-((1S,3R)-5-(1-(2-(l1-oxidaneyl)ethyl)-1H-pyrazol-4-yl)-3-(hydroxymethyl)-1-methyl-3,4-dihydroisoquinolin-2(1H)-yl)-2-(2-chlorophenyl)ethan-1-one] | 18.3 nM | 79.1%
4 | C[C@H]1c2cccc(-c3cnn(C4COC4)c3)c2C[C@H](CO)N1C(=O)Cc1c(F)cccc1Cl [Example 6, 2-(2-chloro-6-fluorophenyl)-1-((1S,3R)-3-(hydroxymethyl)-1-methyl-5-(1-(oxetan-3-yl)-1H-pyrazol-4-yl)-3,4-dihydroisoquinolin-2(1H)-yl)ethan-1-one] | 42.2 nM | 80.4%
5 | C[C@H]1c2cccc(-c3cnn(C)c3)c2C[C@H](CO)N1C(=O)Cc1ccccc1Cl [Example 7, 2-(2-chlorophenyl)-1-((1S,3R)-3-(hydroxymethyl)-1-methyl-5-(1-methyl-1H-pyrazol-4-yl)-3,4-dihydroisoquinolin-2(1H)-yl)ethan-1-one] | 81.2 nM | 82.4%
6 | C[C@H]1c2cccc(-c3cn[nH]c3)c2C[C@H](CO)N1C(=O)Cc1c(F)cccc1Cl [Example 9, 2-(2-chloro-6-fluorophenyl)-1-((1S,3R)-3-(hydroxymethyl)-1-methyl-5-(1H-pyrazol-4-yl)-3,4-dihydroisoquinolin-2(1H)-yl)ethan-1-one] | 28 nM | 81.5%
7 | C[C@H]1c2cccc(-c3cn[nH]c3)c2C[C@H](CO)N1C(=O)Cc1c(F)cccc1F [Example 10, 2-(2,6-difluorophenyl)-1-((1S,3R)-3-(hydroxymethyl)-1-methyl-5-(1H-pyrazol-4-yl)-3,4-dihydroisoquinolin-2(1H)-yl)ethan-1-one] | 127 nM | 78.1%
8 | C[C@H]1c2cccc(-c3cn[nH]c3)c2C[C@H](CO)N1C(=O)Cc1cc(F)ccc1Cl [Example 11, 2-(2-chloro-5-fluorophenyl)-1-((1S,3R)-3-(hydroxymethyl)-1-methyl-5-(1H-pyrazol-4-yl)-3,4-dihydroisoquinolin-2(1H)-yl)ethan-1-one] | 112 nM | 79.8%
9 | C[C@H]1c2cccc(-c3cn[nH]c3)c2C[C@H](CO)N1C(=O)Cc1ccc(F)cc1Cl [Example 12, 2-(2-chloro-4-fluorophenyl)-1-((1S,3R)-3-(hydroxymethyl)-1-methyl-5-(1H-pyrazol-4-yl)-3,4-dihydroisoquinolin-2(1H)-yl)ethan-1-one] | 540 nM | 77.1%
10 | C[C@H]1c2cccc(-c3cn[nH]c3)c2C[C@H](CO)N1C(=O)Cc1ccccc1F [Example 13, 2-(2-fluorophenyl)-1-((1S,3R)-3-(hydroxymethyl)-1-methyl-5-(1H-pyrazol-4-yl)-3,4-dihydroisoquinolin-2(1H)-yl)ethan-1-one] | 484 nM | 89.8%
11 | C[C@H]1c2cccc(-c3cn[nH]c3)c2C[C@H](CO)N1C(=O)Cc1cccc(F)c1F [Example 14, 2-(2,3-difluorophenyl)-1-((1S,3R)-3-(hydroxymethyl)-1-methyl-5-(1H-pyrazol-4-yl)-3,4-dihydroisoquinolin-2(1H)-yl)ethan-1-one] | 677 nM | 72.6%
12 | C[C@H]1c2cccc(-c3cn[nH]c3)c2C[C@H](CO)N1C(=O)Cc1cc(F)ccc1F [Example 15, 2-(2,5-difluorophenyl)-1-((1S,3R)-3-(hydroxymethyl)-1-methyl-5-(1H-pyrazol-4-yl)-3,4-dihydroisoquinolin-2(1H)-yl)ethan-1-one] | 836 nM | 75.5%
